Values after ≈ are worked out from the molar mass of the structure shown.
Assays:
Assay type in all cases: functional
Settings in all cases: time 16-24 hrs
Staphylococcus aureus [1] = assay: Antibacterial activity against methicillin-susceptible Staphylococcus aureus incubated for 16 to 24 hrs by CLSI based broth microdilution method
Staphylococcus aureus [2] = assay: Antibacterial activity against vancomycin-intermediate Staphylococcus aureus incubated for 16 to 24 hrs by CLSI based broth microdilution method
Enterococcus faecium [3] = assay: Antibacterial activity against vancomycin-resistant Enterococcus faecium harboring VanA phenotype incubated for 16 to 24 hrs by CLSI based broth microdilution method
Enterococcus faecium [4] = assay: Antibacterial activity against vancomycin-resistant Enterococcus faecium harboring VanM phenotype incubated for 16 to 24 hrs by CLSI based broth microdilution method
Enterococcus faecium [5] = assay: Antibacterial activity against vancomycin-resistant Enterococcus faecium harboring VanB phenotype incubated for 16 to 24 hrs by CLSI based broth microdilution method
Escherichia coli = assay: Antibacterial activity against Escherichia coli AB1157 incubated for 16 to 24 hrs by CLSI based broth microdilution method
Acinetobacter baumannii = assay: Antibacterial activity against Carbapenem-resistant Acinetobacter baumannii clinical isolate incubated for 16 to 24 hrs by CLSI based broth microdilution method
Klebsiella pneumoniae = assay: Antibacterial activity against Klebsiella pneumoniae clinical isolate incubated for 16 to 24 hrs by CLSI based broth microdilution method
Pseudomonas aeruginosa = assay: Antibacterial activity against Pseudomonas aeruginosa PAO1 incubated for 16 to 24 hrs by CLSI based broth microdilution method

Structure (SMILES) | MIC (Staphylococcus aureus [1]) [mg/L] | MIC (Staphylococcus aureus [2]) [mg/L] | MIC (Enterococcus faecium [3]) [mg/L] | MIC (Enterococcus faecium [4]) [mg/L] | MIC (Enterococcus faecium [5]) [mg/L] | MIC (Escherichia coli) [mg/L] | MIC (Acinetobacter baumannii) [mg/L] | MIC (Klebsiella pneumoniae) [mg/L] | MIC (Pseudomonas aeruginosa) [mg/L]
CC(C)C[C@@H](N)C(=O)N[C@H]1C(=O)N[C@@H](CC(N)=O)C(=O)N[C@H]2C(=O)N[C@H]3C(=O)N[C@H](C(=O)N[C@H](C(=O)NCCCCCCNC(=N)N)c4cc(O)cc(O)c4-c4cc3ccc4O)[C@H](O)c3ccc(c(Cl)c3)Oc3cc2cc(c3O[C@@H]2O[C@H](CO)[C@@H](O)[C@H](O)[C@H]2O[C@H]2C[C@](C)(N)[C@H](O)[C@H](C)O2)Oc2ccc(cc2Cl)[C@H]1O | 0.5 (≈ 0.317 µM) | 2 (≈ 1.27 µM) | 32 (≈ 20.3 µM) | 32 (≈ 20.3 µM) | 16 (≈ 10.2 µM) | 8 (≈ 5.08 µM) | 128 (≈ 81.2 µM) | > 128 | > 128
CN[C@H](CC(C)C)C(=O)N[C@H]1C(=O)N[C@@H](CC(N)=O)C(=O)N[C@H]2C(=O)N[C@H]3C(=O)N[C@H](C(=O)N[C@H](C(=O)O)c4cc(O)cc(O)c4-c4cc3ccc4O)[C@H](O)c3ccc(c(Cl)c3)Oc3cc2cc(c3O[C@@H]2O[C@H](CO)[C@@H](O)[C@H](O)[C@H]2O[C@H]2C[C@](C)(NCc3ccc(-c4ccc(CCNC(=N)N)cc4)cc3)[C@H](O)[C@H](C)O2)Oc2ccc(cc2Cl)[C@H]1O | 0.125 (≈ 0.0735 µM) | 2 (≈ 1.18 µM) | 8 (≈ 4.7 µM) |  | 4 (≈ 2.35 µM) | 64 (≈ 37.6 µM) | 64 (≈ 37.6 µM) | > 128 | 
CN[C@H](CC(C)C)C(=O)N[C@H]1C(=O)N[C@@H](CC(N)=O)C(=O)N[C@H]2C(=O)N[C@H]3C(=O)N[C@H](C(=O)N[C@H](C(=O)NCc4ccc(-c5ccc(CCN)cc5)cc4)c4cc(O)cc(O)c4-c4cc3ccc4O)[C@H](O)c3ccc(c(Cl)c3)Oc3cc2cc(c3O[C@@H]2O[C@H](CO)[C@@H](O)[C@H](O)[C@H]2O[C@H]2C[C@](C)(N)[C@H](O)[C@H](C)O2)Oc2ccc(cc2Cl)[C@H]1O | 1 (≈ 0.603 µM) | 1 (≈ 0.603 µM) | 8 (≈ 4.83 µM) | 8 (≈ 4.83 µM) | 4 (≈ 2.41 µM) | 16 (≈ 9.65 µM) | 32 (≈ 19.3 µM) | > 128 | 
CN[C@H](CC(C)C)C(=O)N[C@H]1C(=O)N[C@@H](CC(N)=O)C(=O)N[C@H]2C(=O)N[C@H]3C(=O)N[C@H](C(=O)N[C@H](C(=O)O)c4cc(O)cc(O)c4-c4cc3ccc4O)[C@H](O)c3ccc(c(Cl)c3)Oc3cc2cc(c3O[C@@H]2O[C@H](CO)[C@@H](O)[C@H](O)[C@H]2O[C@H]2C[C@](C)(NCc3ccc(-c4ccc(CN)cc4)cc3)[C@H](O)[C@H](C)O2)Oc2ccc(cc2Cl)[C@H]1O | 0.25 (≈ 0.152 µM) | 2 (≈ 1.22 µM) | 16 (≈ 9.73 µM) |  | 16 (≈ 9.73 µM) | 64 (≈ 38.9 µM) | 128 (≈ 77.8 µM) | > 128 | 
CN[C@H](CC(C)C)C(=O)N[C@H]1C(=O)N[C@@H](CC(N)=O)C(=O)N[C@H]2C(=O)N[C@H]3C(=O)N[C@H](C(=O)N[C@H](C(=O)O)c4cc(O)cc(O)c4-c4cc3ccc4O)[C@H](O)c3ccc(c(Cl)c3)Oc3cc2cc(c3O[C@@H]2O[C@H](CO)[C@@H](O)[C@H](O)[C@H]2O[C@H]2C[C@](C)(NCc3ccc(-c4ccc(CCN)cc4)cc3)[C@H](O)[C@H](C)O2)Oc2ccc(cc2Cl)[C@H]1O | 0.25 (≈ 0.151 µM) | 2 (≈ 1.21 µM) | 16 (≈ 9.65 µM) |  | 8 (≈ 4.82 µM) | 64 (≈ 38.6 µM) | 64 (≈ 38.6 µM) | > 128 | 
CC(C)C[C@@H](N)C(=O)N[C@H]1C(=O)N[C@@H](CC(N)=O)C(=O)N[C@H]2C(=O)N[C@H]3C(=O)N[C@H](C(=O)N[C@H](C(=O)NCc4ccc(CNC(=N)N)cc4)c4cc(O)cc(O)c4-c4cc3ccc4O)[C@H](O)c3ccc(c(Cl)c3)Oc3cc2cc(c3O[C@@H]2O[C@H](CO)[C@@H](O)[C@H](O)[C@H]2O[C@H]2C[C@](C)(N)[C@H](O)[C@H](C)O2)Oc2ccc(cc2Cl)[C@H]1O | 0.25 (≈ 0.157 µM) | 1 (≈ 0.627 µM) | 16 (≈ 10 µM) | 16 (≈ 10 µM) | 8 (≈ 5.01 µM) | 8 (≈ 5.01 µM) | 32 (≈ 20.1 µM) |  | 
CC(C)C[C@@H](N)C(=O)N[C@H]1C(=O)N[C@@H](CC(N)=O)C(=O)N[C@H]2C(=O)N[C@H]3C(=O)N[C@H](C(=O)N[C@H](C(=O)NCc4ccc(CN)cc4)c4cc(O)cc(O)c4-c4cc3ccc4O)[C@H](O)c3ccc(c(Cl)c3)Oc3cc2cc(c3O[C@@H]2O[C@H](CO)[C@@H](O)[C@H](O)[C@H]2O[C@H]2C[C@](C)(N)[C@H](O)[C@H](C)O2)Oc2ccc(cc2Cl)[C@H]1O | 1 (≈ 0.644 µM) | 1 (≈ 0.644 µM) | 128 (≈ 82.4 µM) | 64 (≈ 41.2 µM) | 64 (≈ 41.2 µM) | 16 (≈ 10.3 µM) | 64 (≈ 41.2 µM) |  | 
CN[C@H](CC(C)C)C(=O)N[C@H]1C(=O)N[C@@H](CC(N)=O)C(=O)N[C@H]2C(=O)N[C@H]3C(=O)N[C@H](C(=O)N[C@H](C(=O)NCc4ccc(-c5ccc(CN)cc5)cc4)c4cc(O)cc(O)c4-c4cc3ccc4O)[C@H](O)c3ccc(c(Cl)c3)Oc3cc2cc(c3O[C@@H]2O[C@H](CO)[C@@H](O)[C@H](O)[C@H]2O[C@H]2C[C@](C)(N)[C@H](O)[C@H](C)O2)Oc2ccc(cc2Cl)[C@H]1O | ≤ 0.063 | 1 (≈ 0.608 µM) | 8 (≈ 4.87 µM) |  | 8 (≈ 4.87 µM) | 16 (≈ 9.74 µM) | 32 (≈ 19.5 µM) | > 128 | 
CC(=O)NC[C@H]1CN(c2ccc(N3CCOCC3)c(F)c2)C(=O)O1 [LINEZOLID] |  |  | 1 (≈ 2.96 µM) | 2 (≈ 5.93 µM) | 2 (≈ 5.93 µM) | 128 (≈ 379 µM) | 128 (≈ 379 µM) | > 128 | > 128
CN[C@H](CC(C)C)C(=O)N[C@H]1C(=O)N[C@@H](CC(N)=O)C(=O)N[C@H]2C(=O)N[C@H]3C(=O)N[C@H](C(=O)N[C@H](C(=O)NCCc4ccc(-c5ccc(CN)cc5)cc4)c4cc(O)cc(O)c4-c4cc3ccc4O)[C@H](O)c3ccc(c(Cl)c3)Oc3cc2cc(c3O[C@@H]2O[C@H](CO)[C@@H](O)[C@H](O)[C@H]2O[C@H]2C[C@](C)(N)[C@H](O)[C@H](C)O2)Oc2ccc(cc2Cl)[C@H]1O | 0.25 (≈ 0.151 µM) | 1 (≈ 0.603 µM) | 8 (≈ 4.83 µM) |  | 8 (≈ 4.83 µM) | 16 (≈ 9.65 µM) | 32 (≈ 19.3 µM) | > 128 | 
CC(C)C[C@H](C(=O)N[C@H]1C(=O)N[C@@H](CC(N)=O)C(=O)N[C@H]2C(=O)N[C@H]3C(=O)N[C@H](C(=O)N[C@H](C(=O)O)c4cc(O)cc(O)c4-c4cc3ccc4O)[C@H](O)c3ccc(c(Cl)c3)Oc3cc2cc(c3O[C@@H]2O[C@H](CO)[C@@H](O)[C@H](O)[C@H]2O[C@H]2C[C@](C)(N)[C@H](O)[C@H](C)O2)Oc2ccc(cc2Cl)[C@H]1O)N(C)Cc1ccc(-c2ccc(CNC(=N)N)cc2)cc1 | 1 (≈ 0.593 µM) | 4 (≈ 2.37 µM) | 32 (≈ 19 µM) | 32 (≈ 19 µM) | 32 (≈ 19 µM) | > 128 | > 128 | > 128 | 
CC(C)C[C@H](C(=O)N[C@H]1C(=O)N[C@@H](CC(N)=O)C(=O)N[C@H]2C(=O)N[C@H]3C(=O)N[C@H](C(=O)N[C@H](C(=O)O)c4cc(O)cc(O)c4-c4cc3ccc4O)[C@H](O)c3ccc(c(Cl)c3)Oc3cc2cc(c3O[C@@H]2O[C@H](CO)[C@@H](O)[C@H](O)[C@H]2O[C@H]2C[C@](C)(N)[C@H](O)[C@H](C)O2)Oc2ccc(cc2Cl)[C@H]1O)N(C)Cc1ccc(-c2ccc(CCNC(=N)N)cc2)cc1 | 2 (≈ 1.18 µM) | 4 (≈ 2.35 µM) | 32 (≈ 18.8 µM) | 32 (≈ 18.8 µM) | 32 (≈ 18.8 µM) | > 128 | > 128 | > 128 | 
CC(C)C[C@H](C(=O)N[C@H]1C(=O)N[C@@H](CC(N)=O)C(=O)N[C@H]2C(=O)N[C@H]3C(=O)N[C@H](C(=O)N[C@H](C(=O)O)c4cc(O)cc(O)c4-c4cc3ccc4O)[C@H](O)c3ccc(c(Cl)c3)Oc3cc2cc(c3O[C@@H]2O[C@H](CO)[C@@H](O)[C@H](O)[C@H]2O[C@H]2C[C@](C)(N)[C@H](O)[C@H](C)O2)Oc2ccc(cc2Cl)[C@H]1O)N(C)Cc1ccc(-c2ccc(CN)cc2)cc1 | 1 (≈ 0.608 µM) | 8 (≈ 4.86 µM) | 64 (≈ 38.9 µM) | 64 (≈ 38.9 µM) | 64 (≈ 38.9 µM) | > 128 | > 128 | > 128 | 
CN[C@H](CC(C)C)C(=O)N[C@H]1C(=O)N[C@@H](CC(N)=O)C(=O)N[C@H]2C(=O)N[C@H]3C(=O)N[C@H](C(=O)N[C@H](C(=O)O)c4cc(O)cc(O)c4-c4cc3ccc4O)[C@H](O)c3ccc(c(Cl)c3)Oc3cc2cc(c3O[C@@H]2O[C@H](CO)[C@@H](O)[C@H](O)[C@H]2O[C@H]2C[C@](C)(NCc3ccc(-c4ccc(CNC(=N)N)cc4)cc3)[C@H](O)[C@H](C)O2)Oc2ccc(cc2Cl)[C@H]1O | 0.125 (≈ 0.0741 µM) | 2 (≈ 1.19 µM) | 4 (≈ 2.37 µM) |  | 4 (≈ 2.37 µM) | 64 (≈ 37.9 µM) | 64 (≈ 37.9 µM) | > 128 | 
CC(C)C[C@H](C(=O)N[C@H]1C(=O)N[C@@H](CC(N)=O)C(=O)N[C@H]2C(=O)N[C@H]3C(=O)N[C@H](C(=O)N[C@H](C(=O)O)c4cc(O)cc(O)c4-c4cc3ccc4O)[C@H](O)c3ccc(c(Cl)c3)Oc3cc2cc(c3O[C@@H]2O[C@H](CO)[C@@H](O)[C@H](O)[C@H]2O[C@H]2C[C@](C)(N)[C@H](O)[C@H](C)O2)Oc2ccc(cc2Cl)[C@H]1O)N(C)Cc1ccc(-c2ccc(CCN)cc2)cc1 | 1 (≈ 0.603 µM) | 8 (≈ 4.82 µM) | 64 (≈ 38.6 µM) | 64 (≈ 38.6 µM) | 64 (≈ 38.6 µM) | > 128 | > 128 | > 128 | 

From ChEMBL document CHEMBL6127119 (J Med Chem, 2024)
